From ChEMBL document CHEMBL1201862, “PubChem BioAssay data set” (2004) come the findings set out here.

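Method: 48-hour compound exposure of cells in 96-well plates, five concentrations, linear interpolation of endpoints. GI50 = concentration required for 50% inhibition of growth.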 Activity calls are given as the source filed them. No stated cut-off is given here; in the data, active = GI50 up to about 1.1 µM and inactive = higher. Where only a bound is given, the exact number is not on record here.

What all share (experiment): NCI tumour cell line growth inhibition, 48 h
The test system of assay [1] is SK-OV-3.
The test system of assay [2] is SW-620.
In assay [3] the test system is OVCAR-4.
Assay [4] relates to SF-295.
Assay [5] deals with NCI-H460.
Assay [6] relates to 786-0.
Assay [7] deals with HCT-15.
The test system of assay [8] is HCC 2998.
The subject of assay [9] is KM12.
Assay [10] concerns MCF7.
For assay [11], the system named is CAKI-1.
Assay [12] concerns Malme-3M.
Assay [13] concerns MOLT-4.
Assay [14] deals with UACC-257.
Assay [15] concerns TK-10.
In assay [16] the test system is HOP-92.
Assay [17] has as its system COLO 205.
For assay [18], the system named is UO-31.
For assay [19], the system named is T47D.
For assay [20], the system named is NCI/ADR-RES.

In the case of `Cc1cccc(/C(Br)=C2/OC(=O)c3ccccc32)c1`, the GI50 in assay [1], in assay [2], in assay [3], in assay [4], in [5] and in assay [6] was > 100 µM (inactive) throughout. The GI50 is over 100 µM in [7]; > 100 µM (inactive) in assay [8]; > 100 µM (inactive) in [9]; > 100 µM (inactive) in assay [10]; > 100 µM (inactive) in assay [11]; > 100 µM (inactive) in assay [12]. Besides, the GI50 in assay [13], in assay [14], in assay [15], in assay [16] and in assay [17] was > 100 µM (inactive) throughout.

As to `COc1ccc(N2/C(=N/c3ccccc3)SC(=N/S(=O)(=O)c3ccccc3)/C2=N\S(=O)(=O)c2ccccc2)cc1`, the GI50 is 34.8 µM (inactive) in assay [2]; 11.3 µM (inactive) in [5]; 24.9 µM (inactive) in assay [6]; 13.3 µM in assay [7]; 17.3 µM (inactive) in [8]; 38.8 µM (inactive) in assay [9]. Further, the GI50 was 18.7 µM (inactive) in [10]; 19.2 µM (inactive) in [18]; 21 µM (inactive) in assay [12]; 17.8 µM (inactive) in assay [13]; 26.8 µM (inactive) in assay [14]; 20.1 µM (inactive) in assay [15]. For the same molecule, the GI50 in assay [19] is 0.298 µM (active); in [16], 16.4 µM (inactive); in assay [17] it was 16.4 µM (inactive).

For the molecule `O=C(COc1ccc(OCC(=O)N2C(=O)CC(=O)N(c3ccc(Cl)cc3)C2=S)cc1)N1C(=O)CC(=O)N(c2ccc(Cl)cc2)C1=S`, the GI50 is 35.4 µM (inactive) in assay [1]; 53.1 µM (inactive) in assay [2]; 33.6 µM (inactive) in assay [3]; 34 µM (inactive) in assay [4]; 29.2 µM (inactive) in assay [5]; 19.6 µM (inactive) in [6]. The GI50 in assay [7] was 24.3 µM; in assay [8] it was 28.5 µM (inactive); in assay [9], 15.7 µM (inactive); in assay [10], 35.1 µM (inactive); in [18], 31.7 µM (inactive); in [12] it was 3.26 µM (inactive). Also, the GI50 in assay [20] is 22.9 µM (inactive); in assay [13], 17.9 µM (inactive); in [14] it was 36.1 µM (inactive); in assay [15], 37.3 µM (inactive); in assay [16], 20.7 µM (inactive); in [17] it was 18.2 µM (inactive).

In the case of `c1ccc(Cc2nc(Cc3n[nH]c(Cc4ccccc4)n3)n[nH]2)cc1`, the GI50 in assay [1] is > 100 µM (inactive); in assay [2] it was > 100 µM (inactive); in assay [3] it was > 100 µM (inactive); in assay [4], > 100 µM (inactive); in [6], > 100 µM (inactive); in assay [7] it was over 100 µM. Moreover, the GI50 in [8], in [9], in [10], in assay [18], in assay [20] and in assay [13] was > 100 µM (inactive) each time. Moreover, the GI50 in assay [14], in [15], in [16] and in [17] was > 100 µM (inactive) in each case.

With `COC(=O)Cc1c(C(=O)CC(C)(C)n2cnc(CCN3C(=O)CCC3=O)c2)[nH]c2ccccc12`, the GI50 in [1], in assay [2], in assay [3], in [4], in assay [5] and in [6] was > 100 µM (inactive) each time. Further, the GI50 in assay [7] is over 100 µM; in [9] it was > 100 µM (inactive); in [10], > 100 µM (inactive); in assay [18], 37.5 µM (inactive); in assay [11] it was > 100 µM (inactive); in [12], > 100 µM (inactive). Besides, the GI50 in assay [20] is > 100 µM (inactive); in assay [13], > 100 µM (inactive); in assay [14], > 100 µM (inactive); in [15], > 100 µM (inactive); in assay [16] it was 15 µM (inactive); in assay [17] it was > 100 µM (inactive).

With `COC(=O)c1c(C)cccc1/C=C1\Cc2ccc(C)c(C)c2C1=O`, the GI50 is > 100 µM (inactive) in assay [2]; 22.3 µM (inactive) in [3]; > 100 µM (inactive) in [4]; > 100 µM (inactive) in [5]; > 100 µM (inactive) in assay [6]; over 100 µM in assay [7]. The GI50 in assay [8] was > 100 µM (inactive); in [9], > 100 µM (inactive); in assay [10], > 100 µM (inactive); in [18], 28.8 µM (inactive); in assay [11], > 100 µM (inactive); in assay [12], > 100 µM (inactive). Besides, the GI50 in assay [13] was 93.8 µM (inactive); in [14], > 100 µM (inactive); in assay [15] it was > 100 µM (inactive); in assay [19] it was 76.7 µM (inactive); in [16], 74.3 µM (inactive).

As to `O=C1OC(c2ccco2)=N/C1=C\c1cccc([N+](=O)[O-])c1`, the GI50 in assay [1], in assay [2], in [3], in [4], in assay [5] and in assay [6] was > 100 µM (inactive) throughout. Besides, the GI50 in assay [7] was over 100 µM; in assay [8], > 100 µM (inactive); in assay [9], > 100 µM (inactive); in assay [10], > 100 µM (inactive); in assay [11], > 100 µM (inactive); in assay [12], > 100 µM (inactive). Also, the GI50 in [13], in [14], in [15], in assay [19], in assay [16] and in assay [17] was > 100 µM (inactive) throughout.

Take `COC(=O)C(=O)C(C(=O)C(=O)Nc1ccc(C)cc1C)c1nc2ccc(Cl)cc2nc1O` (stereo not drawn): the GI50 in assay [1], in assay [2], in [3], in assay [4], in assay [5] and in assay [6] was > 100 µM (inactive) in each case. Further, the GI50 in [7] is over 100 µM; in assay [8], > 100 µM (inactive); in assay [9], > 100 µM (inactive); in [10], > 100 µM (inactive); in [18], 47.6 µM (inactive); in assay [11], > 100 µM (inactive). Moreover, the GI50 in [20], in assay [13], in [14], in assay [15], in assay [16] and in [17] was > 100 µM (inactive) in each case.

Turning to `CCCCC/C(=N\c1[nH]cnc1C(N)=O)OCC`, the GI50 in assay [1], in [2], in assay [3], in assay [4], in assay [5] and in assay [6] was > 100 µM (inactive) each time. The GI50 in assay [7] was over 100 µM; in assay [8], > 100 µM (inactive); in assay [9] it was > 100 µM (inactive); in assay [10] it was > 100 µM (inactive); in assay [18], 55.5 µM (inactive); in assay [11] it was > 100 µM (inactive). In addition, the GI50 in assay [12], in assay [20], in assay [13], in [14], in assay [15] and in assay [17] was > 100 µM (inactive) throughout.

For the molecule `CN(CCC(=O)N1CC(CCl)c2ccc([N+](=O)[O-])cc21)CCC(=O)N1CC(CCl)c2ccc([N+](=O)[O-])cc21` (stereo not drawn), the GI50 in assay [1] is 29.6 µM (inactive); in assay [2], 15.6 µM (inactive); in assay [3], 42.7 µM (inactive); in [4], 13.7 µM (inactive); in assay [5] it was 24.7 µM (inactive); in assay [6], 10.9 µM (inactive). The GI50 in [7] was 13.2 µM; in [8] it was 5.79 µM (inactive); in [9] it was 4.72 µM (inactive); in [10], 11.4 µM (inactive); in assay [11] it was 18.7 µM (inactive); in assay [12], 10.1 µM (inactive). Besides, the GI50 in assay [13] was 4.25 µM (inactive); in assay [14], 9.2 µM (inactive); in assay [15], 10.4 µM (inactive); in assay [19], 25.1 µM (inactive); in assay [17], 15.4 µM (inactive).

On to `C=C1C2C[C@@H]3O[C@H]4C[C@H]5O[C@@]6(C[C@@H]7O[C@]8(C[C@H](C)[C@@H]9O[C@@H]%10CC(C=O)O[C@@H]%10C[C@@H]9O8)C[C@H](C)[C@@H]7O6)C[C@H]5O[C@H]4[C@H](C)[C@H]3OC(=O)C[C@H]3CC[C@@H]4OC5[C@H]6O[C@]7(CC[C@H]8CC(=C)[C@H](CC[C@@H](C[C@H]1C)O2)O8)CC6O[C@@H]5[C@@H](O7)[C@H]4O3` (stereo partly drawn), for which the GI50 in assay [2] is < 0.0001 µM (active); in assay [4], < 0.0001 µM (active); in assay [5] it was < 0.0001 µM (active); in assay [6], < 0.0001 µM (active); in [7], under 0.0001 µM; in [8], < 0.0001 µM (active). Moreover, the GI50 in assay [9] is < 0.0001 µM (active); in assay [10], < 0.0001 µM (active); in assay [18], < 0.0001 µM (active); in assay [11], < 0.0001 µM (active); in [20], 0.000951 µM (active); in assay [13], < 0.0001 µM (active). Besides, the GI50 in [14] was < 0.01 µM (active); in assay [15] it was 0.00771 µM (active); in assay [16], 0.000724 µM (active); in assay [17], < 0.0001 µM (active).
